{"source": "patent US20230121086A1", "about": "“RORgT INHIBITOR, PREPARATION METHOD THEREOF AND USE THEREOF” (SUNSHINE LAKE PHARMA CO., LTD., priority 2020, published 2023)"}
{"molecular_target": "T1, RORγt (Homo sapiens, UniProt P51449)", "T1 construct": "[…]", "T1 sequence (P51449 269-508 limits assumed)": "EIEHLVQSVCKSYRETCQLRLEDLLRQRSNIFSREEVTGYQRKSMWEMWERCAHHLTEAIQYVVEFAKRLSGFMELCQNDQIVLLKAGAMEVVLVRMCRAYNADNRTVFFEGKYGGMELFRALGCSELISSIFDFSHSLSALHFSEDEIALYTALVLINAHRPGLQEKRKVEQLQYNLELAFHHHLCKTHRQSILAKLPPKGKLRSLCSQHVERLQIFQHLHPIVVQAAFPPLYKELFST", "assay": "Fluorescence resonance energy transfer (FRET) test, inhibitory activity of RORγt", "format": "biochemical", "details": "FRET, B-RORγt LBD / Biotin-SRC1; read-out: IC50", "units": {"IC50": "µM"}}
{"smiles": "CCS(=O)(=O)c1ccc([C@H](CC#N)NC(=O)c2ccc(N3CC(Oc4ccc(C(F)(F)F)cc4)C[C@H]3COC(F)F)cc2)cc1", "note": "(single isomer, unassigned) [Example 74]", "IC50": 0.07}
{"smiles": "CCS(=O)(=O)c1ccc([C@@H](CC#N)NC(=O)c2ccc(N3CC(Oc4ccc(C(F)(F)F)cc4)C[C@H]3COC(F)F)cc2)cc1", "note": "(stereo in doubt) [Example 48, N-((R)-2-cyano-1-(4-(ethylsulfonyl)phenyl)ethyl)-4-((2S,4S)-2-((difluoromethoxy)methyl)-4-(4-(trifluoromethyl)phenoxy)pyrrolidin-1-yl)benzamide]", "IC50": 0.008}
{"smiles": "CCS(=O)(=O)c1ccc([C@H](CC#N)NC(=O)c2ccc(N3CC(Oc4ccc(C(F)(F)F)cc4)C[C@H]3COC(F)F)cc2)nc1", "note": "(stereo in doubt) [Example 49, N-((S)-2-cyano-1-(5-(ethylsulfonyl)pyridin-2-yl)ethyl)-4-((2S,4S)-2-((difluoromethoxy)methyl)-4-(4-(trifluoromethyl)phenoxy)pyrrolidin-1-yl)benzamide]", "IC50": 0.028}
{"smiles": "CCS(=O)(=O)c1ccc([C@H](CC#N)NC(=O)c2cnc(N3CC(Oc4ccc(C(F)(F)F)cc4)C[C@H]3COC(F)F)c(F)c2)cc1", "note": "(stereo in doubt) [Example 50, N-((S)-2-cyano-1-(4-(ethylsulfonyl)phenyl)ethyl)-6-((2S,4S)-2-((difluoromethoxy)methyl)-4-(4-(trifluoromethyl)phenoxy)pyrrolidin-1-yl)-5-fluoronicotinamide]", "IC50": 0.016}
{"smiles": "CCS(=O)(=O)c1ccc([C@H](CCC#N)NC(=O)c2ccc(N3CC(Oc4ccc(C(F)(F)F)cc4)C[C@H]3COC(F)F)cc2)cc1", "note": "(stereo in doubt) [Example 51, N-((S)-3-cyano-1-(4-(ethylsulfonyl)phenyl)propyl)-4-((2S,4S)-2-((difluoromethoxy)methyl)-4-(4-(trifluoromethyl)phenoxy)pyrrolidin-1-yl)benzamide]", "IC50": 0.014}
{"smiles": "CCS(=O)(=O)c1ccc([C@H](CC#N)NC(=O)c2ccc(N3CC(Oc4ccc(C(F)(F)F)nc4)C[C@H]3COC(F)F)cc2)cc1", "note": "(stereo in doubt) [Example 57, N-((S)-2-cyano-1-(4-(ethylsulfonyl)phenyl)ethyl)-4-((2S,4S)-2-((difluoromethoxy)methyl)-4-((6-(trifluoromethyl)pyridine-3-yl)oxy)pyrrolidin-1-yl)benzamide]", "IC50": 0.041}
{"smiles": "CCS(=O)(=O)c1ccc([C@H](CC#N)NC(=O)c2ccc(N3CC(Oc4ccc(C(F)(F)F)cc4)C[C@H]3COC(F)F)cc2F)cc1", "note": "(stereo in doubt) [Example 59, N-((S)-2-cyano-1-(4-(ethylsulfonyl)phenyl)ethyl)-4-((2S,4S)-2-((difluoromethoxy)methyl)-4-(4-(trifluoromethyl)phenoxy)pyrrolidin-1-yl)-2-fluorobenzamide]", "IC50": 0.047}
{"smiles": "CCS(=O)(=O)c1ccc([C@H](CC#N)NC(=O)c2ccc(N3CC(Oc4ccc(C(F)(F)F)cc4)C[C@H]3COC(F)F)c(OC)c2)cc1", "note": "(stereo in doubt) [Example 60, N-((S)-2-cyano-1-(4-(ethylsulfonyl)phenyl)ethyl)-4-((2S,4S)-2-((difluoromethoxy)methyl)-4-(4-(trifluoromethyl)phenoxy)pyrrolidin-1-yl)-3-methoxybenzamide]", "IC50": 0.081}
{"smiles": "CCS(=O)(=O)c1ccc([C@H](CC#N)NC(=O)c2ccc(N3CC(Oc4ccc(OC)cc4)C[C@H]3COC(F)F)cc2)cc1", "note": "(stereo in doubt) [Example 63, N-((S)-2-cyano-1-(4-(ethylsulfonyl)phenyl)ethyl)-4-((2S,4S)-2-((difluoromethoxy)methyl)-4-(4-methoxyphenoxy)pyrrolidin-1-yl)benzamide]", "IC50": 0.007}
{"smiles": "CCS(=O)(=O)c1ccc([C@H](CC#N)NC(=O)c2ccc(N3CC(Oc4ccc(C(F)(F)F)cc4)C[C@H]3COC(F)(F)F)cc2)cc1", "note": "(stereo in doubt) [Example 70, N-((S)-2-cyano-1-(4-(ethylsulfonyl)phenyl)ethyl)-4-((2S,4S)-2-((trifluoromethoxy)methyl)-4-(4-(trifluoromethyl)phenoxy)pyrrolidin-1-yl)benzamide]", "IC50": 0.026}
{"smiles": "CCS(=O)(=O)c1ccc([C@H](CC#N)NC(=O)c2cnc(N3CC(Oc4ccc(C(F)(F)F)cc4)C[C@H]3COC(F)(F)F)nc2)cc1", "note": "(stereo in doubt) [Example 72, N-((S)-2-cyano-1-(4-(ethylsulfonyl)phenyl)ethyl)-2-((2S,4S)-2-((trifluoromethoxy)methyl)-4-(4-(trifluoromethyl)phenoxy)pyrrolidin-1-yl)pyrimidine-5-carboxamide]", "IC50": 0.034}
{"smiles": "CCS(=O)(=O)c1ccc(C(CC#N)NC(=O)c2ccc(N3CC(c4ccc(C(F)(F)F)cc4)C[C@H]3COC(F)F)cc2)cc1", "note": "(stereo in doubt) [Example 81, N—((S)-2-cyano-1-(4-(ethylsulfonyl)phenyl)ethyl)-4-((2S,4S)-2-((difluoromethoxy)methyl)-4-(4-(trifluoromethyl)phenyl)pyrrolidin-1-yl)benzamide]", "IC50": 0.044}
{"smiles": "CCS(=O)(=O)c1ccc([C@H](CC#N)NC(=O)c2ccc(N3CCC(Oc4ccc(C(F)(F)F)cc4)C3)c(F)c2)cc1", "note": "(stereo in doubt) [Example 83, N-((S)-2-cyano-1-(4-(ethylsulfonyl)phenyl)ethyl)-3-fluoro-4-((S)-3-(4-(trifluoromethyl)phenoxy)pyrrolidin-1-yl)benzamide]", "IC50": 0.091}
{"smiles": "CCS(=O)(=O)c1ccc([C@H](CC#N)NC(=O)c2ccc(N3C[C@@H](Oc4ccc(-n5ccnc5)cc4)C[C@H]3COC(F)F)cc2)cc1", "note": "[Example 5, 4-((2S,4S)-4-(4-(1H-imidazol-1-yl)phenoxy)-2-((difluoromethoxy)methyl)pyrrolidin-1-yl)-N-((S)-2-cyano-1-(4-(ethylsulfonyl)phenyl)ethyl)benzamide]", "IC50": 0.0361}
{"smiles": "CCS(=O)(=O)c1ccc([C@H](CC#N)NC(=O)c2ccc(N3C[C@@H](Oc4ccc(N)cc4)C[C@H]3COC(F)F)cc2)cc1", "note": "[Example 7, 4-((2S,4S)-4-(4-aminophenoxy)-2-((difluoromethoxy)methyl)pyrrolidin-1-yl)-N-((S)-2-cyano-1-(4-(ethylsulfonyl)phenyl)ethyl)benzamide]", "IC50": 0.0575}
{"smiles": "CCS(=O)(=O)c1ccc([C@H](CC#N)NC(=O)c2ccc(N3C[C@@H](Oc4ccc(OC(F)(F)F)cn4)C[C@H]3COC(F)F)cc2)cc1", "note": "[Example 8, N-((S)-2-cyano-1-(4-(ethylsulfonyl)phenyl)ethyl)-4-((2S,4S)-2-((difluoromethoxy)methyl)-4-((5-(trifluoromethoxy)pyridin-2-yl)oxy)pyrrolidin-1-yl)benzamide]", "IC50": 0.0188}
{"smiles": "CCS(=O)(=O)c1ccc([C@H](CC#N)NC(=O)c2ccc(N3C[C@@H](Oc4ccc(OC(F)F)nc4)C[C@H]3COC(F)F)cc2)cc1", "note": "[Example 9, N-((S)-2-cyano-1-(4-(ethylsulfonyl)phenyl)ethyl)-4-((2S,4S)-2-((difluoromethoxy)methyl)-4-((6-(difluoromethoxy)pyridin-3-yl)oxy)pyrrolidin-1-yl)benzamide]", "IC50": 0.0258}
{"smiles": "CCS(=O)(=O)c1ccc([C@H](CC#N)NC(=O)c2ccc(N3C[C@@H](Oc4ccc(OC)nc4)C[C@H]3COC(F)F)cc2)cc1", "note": "[Example 10, N-((S)-2-cyano-1-(4-(ethylsulfonyl)phenyl)ethyl)-4-((2S,4S)-2-((difluoromethoxy)methyl)-4-((6-methoxypyridine-3-yl)oxy)pyrrolidin-1-yl)benzamide]", "IC50": 0.019}
{"smiles": "CCS(=O)(=O)c1ccc([C@H](CC#N)NC(=O)c2ccc(N3C[C@@H](Oc4ccc(OC(F)(F)F)nc4)C[C@H]3COC(F)F)cc2)cc1", "note": "[Example 11, N-((S)-2-cyano-1-(4-(ethylsulfonyl)phenyl)ethyl)-4-((2S,4S)-2-((difluoromethoxy)methyl)-4-((6-(trifluoromethoxy)pyridin-3-yl)oxy)pyrrolidin-1-yl)benzamide]", "IC50": 0.027}
{"smiles": "CCS(=O)(=O)c1ccc([C@@H](CC#N)NC(=O)c2ccc(N3C[C@@H](Oc4ccc(OC(F)F)cc4)C[C@H]3COC(F)F)cc2)cc1", "note": "[Example 12, N-((R)-2-cyano-1-(4-(ethylsulfonyl)phenyl)ethyl)-4-((2S,4S)-2-((difluoromethoxy)methyl)-4-(4-(difluoromethoxy)phenoxy)pyrrolidin-1-yl)benzamide]", "IC50": 0.0215}
{"smiles": "CCS(=O)(=O)c1ccc([C@H](CC#N)NC(=O)c2ccc(N3C[C@@H](Oc4ccc(OC(F)F)cc4)C[C@H]3COC(F)F)cc2)nc1", "note": "[Example 13, N-((S)-2-cyano-1-(5-(ethylsulfonyl)pyridin-2-yl)ethyl)-4-((2S,4S)-2-((difluoromethoxy)methyl)-4-(4-(difluoromethoxy)phenoxy)pyrrolidin-1-yl)benzamide]", "IC50": 0.0314}
{"smiles": "CCS(=O)(=O)c1ccc([C@H](CC#N)NC(=O)c2ccc(N3C[C@@H](Oc4ccc(C)nc4)C[C@H]3COC(F)F)cc2)cc1", "note": "[Example 15, N-((S)-2-cyano-1-(4-(ethylsulfonyl)phenyl)ethyl)-4-((2S,4S)-2-((difluoromethoxy)methyl)-4-((6-methylpyridin-3-yl)oxy)pyrrolidin-1-yl)benzamide]", "IC50": 0.0787}
{"smiles": "CCS(=O)(=O)c1ccc([C@@H](CC#N)NC(=O)c2ccc(N3C[C@@H](Oc4ccc(OC(F)(F)F)cn4)C[C@H]3COC(F)F)cc2)cc1", "note": "[Example 17, N-((R)-2-cyano-1-(4-(ethylsulfonyl)phenyl)ethyl)-4-((2S,4S)-2-((difluoromethoxy)methyl)-4-((5-(trifluoromethoxy)pyridin-2-yl)oxy)pyrrolidin-1-yl)benzamide]", "IC50": 0.0149}
{"smiles": "CCS(=O)(=O)c1ccc([C@H](CC#N)NC(=O)c2ccc(N3C[C@@H](Oc4ccc(OC(F)(F)F)cn4)C[C@H]3COC(F)F)nc2)cc1", "note": "[Example 18]", "IC50": 0.0259}
